The values below come from US8859546B2, “Picolinamide inhibitors of kinases” (AbbVie Inc., priority 2011, dated 2014).

Structures are written as SMILES.

The test deals with T1, ALK (Homo sapiens, UniProt Q9UM73).
T1 construct: purchased Millipore
Briefly: ALK kinase assay (HTRF), apparent Ki. Format: biochemical. Particulars: apparent Ki from IC50 by Cheng-Prusoff; ALK (Millipore), 50 μM ATP; read-out: HTRF_ALK Human-Ki. As to the method: The following procedure is used to determine ALK Activity.
ALK kinase assays were conducted with the indicated final concentrations unless otherwise specified. In 384 well black plates (Axygen), 8 μl of compound (2% DMSO) was incubated with 8 μl Lck-peptide substrate (0.5 μM, biotin-Ahx-GAEEEIYAAFFA-COOH) and 8 μl of a mixture of ALK (3 nM, Millipore) and ATP (50 μM) in reaction buffer (50 mM Hepes, pH 7.4; 10 mM MgCl2; 2 mM MnCl2; 0.1 mM sodium orthovanadate; 0.01% BSA and 1 mM DTT (added fresh before assay) for 1 h at room temperature. Reactions were then quenched by the addition of 30 μl quench solution (streptavidin-allophycocyanin and Europium-cryptate PT66 monoclonal antibody in 40 mM Hepes, pH 7.4; 480 mM KF; 66 mM EDTA; 0.01% Tween-20; and 0.1% BSA) at room temperature. Plates were read 1 h after quenching on an Envision Multilaber Reader and IC50 values were calculated using a sigmoidal fit of the concentration/inhibition response curves. These values were converted to apparent Ki values using the Cheng-Prusoff relationship.
Alternatively, 4 nM ALK (Millipore) and 50 μM ATP were pre-incubated for 30 min at room temperate in 384 well plates (Corning 3676) in 2.5× reaction buffer (125 nM SEB from Cisbio Bioassays, 12.5 mM MgCl2, 5 mM MnCl2, and 2.5 mM DTT). Reactions were initiated by the addition of 4 μl ALK-ATP mixture to 2 μl compounds (2% DMSO) and 4 μl TK-substrate biotin (Cisbio Bioassays). After incubation for 1 h at room temperature, reactions were quenched in 10 μl stop buffer (Cisbio detection buffer containing Streptavididn-XL665 and Eu-Cryptate PT66 monoclonal antibody). Plates were read 1 h after quenching on an Envision Multilaber Reader and IC50 values were calculated using a sigmoidal fit of the concentration/inhibition response curves. These values were converted to apparent Ki values using the Cheng-Prusoff relationship. Results are shown in Table 1 A correlates to an Ki=<100 nM, B correlates to an Ki between 100 nM and 1 μM, C correlates to an Ki=>1 μM.

T1 sequence (Q9UM73 19-1620): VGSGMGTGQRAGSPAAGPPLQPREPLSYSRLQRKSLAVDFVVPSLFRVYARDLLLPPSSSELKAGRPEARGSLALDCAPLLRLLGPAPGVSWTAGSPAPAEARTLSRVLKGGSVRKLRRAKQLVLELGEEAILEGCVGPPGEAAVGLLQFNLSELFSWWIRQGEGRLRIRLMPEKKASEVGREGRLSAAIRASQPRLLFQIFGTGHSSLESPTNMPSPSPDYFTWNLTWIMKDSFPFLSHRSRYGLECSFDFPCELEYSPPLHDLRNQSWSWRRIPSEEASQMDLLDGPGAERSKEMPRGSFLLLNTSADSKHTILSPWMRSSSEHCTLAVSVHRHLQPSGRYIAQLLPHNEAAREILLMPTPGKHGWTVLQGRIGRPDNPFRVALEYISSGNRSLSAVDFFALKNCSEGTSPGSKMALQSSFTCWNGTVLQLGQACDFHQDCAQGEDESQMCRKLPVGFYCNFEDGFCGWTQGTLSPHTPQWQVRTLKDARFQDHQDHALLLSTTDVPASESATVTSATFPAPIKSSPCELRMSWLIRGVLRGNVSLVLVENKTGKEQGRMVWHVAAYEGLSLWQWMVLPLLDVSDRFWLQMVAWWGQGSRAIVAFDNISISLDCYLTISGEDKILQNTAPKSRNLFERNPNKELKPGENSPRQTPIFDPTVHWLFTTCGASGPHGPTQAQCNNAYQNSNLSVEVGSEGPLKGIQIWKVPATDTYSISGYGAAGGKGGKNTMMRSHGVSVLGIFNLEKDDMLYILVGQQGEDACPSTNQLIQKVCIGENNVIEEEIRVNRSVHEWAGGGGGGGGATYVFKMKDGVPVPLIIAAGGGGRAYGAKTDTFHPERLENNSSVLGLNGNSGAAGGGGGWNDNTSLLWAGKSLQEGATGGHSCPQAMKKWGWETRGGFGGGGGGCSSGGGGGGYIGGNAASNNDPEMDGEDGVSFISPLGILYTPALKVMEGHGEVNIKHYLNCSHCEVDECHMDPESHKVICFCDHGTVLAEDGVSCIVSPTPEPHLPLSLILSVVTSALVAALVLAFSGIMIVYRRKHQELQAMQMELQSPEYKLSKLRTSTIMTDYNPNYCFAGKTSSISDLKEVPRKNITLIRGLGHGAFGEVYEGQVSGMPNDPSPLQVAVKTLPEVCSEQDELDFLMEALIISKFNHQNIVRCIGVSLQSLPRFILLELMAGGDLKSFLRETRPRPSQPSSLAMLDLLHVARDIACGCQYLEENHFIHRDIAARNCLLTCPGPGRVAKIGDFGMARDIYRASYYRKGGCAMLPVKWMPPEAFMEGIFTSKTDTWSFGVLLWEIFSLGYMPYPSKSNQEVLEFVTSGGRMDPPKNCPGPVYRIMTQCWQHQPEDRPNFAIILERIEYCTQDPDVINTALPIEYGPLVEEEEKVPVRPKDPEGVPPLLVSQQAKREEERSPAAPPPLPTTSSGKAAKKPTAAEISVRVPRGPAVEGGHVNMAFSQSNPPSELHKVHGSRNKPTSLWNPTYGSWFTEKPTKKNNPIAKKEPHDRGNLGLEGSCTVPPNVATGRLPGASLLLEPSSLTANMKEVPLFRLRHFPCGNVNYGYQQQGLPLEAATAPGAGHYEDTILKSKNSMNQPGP

`COc1cc(N2CCNCC2)ccc1Nc1cc(Cc2c(F)ccc(F)c2Cl)cnc1C(N)=O` [Example 48, 5-(2-chloro-3,6-difluorobenzyl)-3-{[2-methoxy-4-(piperazin-1-yl)phenyl]amino}pyridine-2-carboxamide]: the Ki was in the range of 100 to 1000 nM.

As to `CC(c1ccccc1)c1cnc(C(N)=O)c(Nc2ccc(N3CCN(C)CC3)cc2)c1` (centres unmarked) [Example 11, 3-{[4-(4-methylpiperazin-1-yl)phenyl]amino}-5-(1-phenylethyl)pyridine-2-carboxamide], the Ki was in the range of 100 to 1000 nM.

On to `CN1CCN(c2ccc(Nc3cc(Cc4ccccc4Cl)cnc3C(N)=O)cc2)CC1` [Example 23, 5-(2-chlorobenzyl)-3-{[4-(4-methylpiperazin-1-yl)phenyl]amino}pyridine-2-carboxamide], for which the Ki fell in the range of 100 to 1000 nM.

For `CN1CCN(c2ccc(Nc3cc(Cc4cc(F)ccc4F)cnc3C(N)=O)cc2)CC1` [Example 21, 5-(2,5-difluorobenzyl)-3-{[4-(4-methylpiperazin-1-yl)phenyl]amino}pyridine-2-carboxamide], the Ki is less than 100 nM.

For `CN1CCN(c2ccc(Nc3cc(Cc4c(F)cccc4Cl)cnc3C(N)=O)cc2)CC1` [Example 30, 5-(2-chloro-6-fluorobenzyl)-3-{[4-(4-methylpiperazin-1-yl)phenyl]amino}pyridine-2-carboxamide], the Ki is less than 100 nM.

`CN1CCN(c2ccc(Nc3cc(-c4ccccc4Cl)cnc3C(N)=O)cc2)CC1` [Example 58, 5-(2-chlorophenyl)-3-{[4-(4-methylpiperazin-1-yl)phenyl]amino}pyridine-2-carboxamide]: the Ki lay within 100 to 1000 nM.

On to `Cc1cc(Nc2cc(Cc3ccccc3)cnc2C(N)=O)ccc1N1CCN(C)CC1` [Example 8, 5-benzyl-3-{[3-methyl-4-(4-methylpiperazin-1-yl)phenyl]amino}pyridine-2-carboxamide], for which the Ki is more than 1000 nM.

Regarding `COc1ccc(Cc2cnc(C(N)=O)c(Nc3ccc(N4CCN(C)CC4)cc3)c2)cc1` [Example 16, 5-(4-methoxybenzyl)-3-{[4-(4-methylpiperazin-1-yl)phenyl]amino}pyridine-2-carboxamide], the Ki was 100 to 1000 nM.

For `CN1CCN(c2ccc(Nc3cc(Cc4ccc(F)cc4)cnc3C(N)=O)cc2)CC1` [Example 12, 5-(4-fluorobenzyl)-3-{[4-(4-methylpiperazin-1-yl)phenyl]amino}pyridine-2-carboxamide], the Ki lay within 100 to 1000 nM.

Turning to `CN1CCN(c2ccc(Nc3cc(-c4cnn(C)c4)cnc3C(N)=O)cc2)CC1` [Example 64, 3-{[4-(4-methylpiperazin-1-yl)phenyl]amino}-5-(1-methyl-1H-pyrazol-4-yl)pyridine-2-carboxamide], the Ki was more than 1000 nM.

Consider `COc1cc(N2CCN(C)CC2)ccc1Nc1cc(Cc2c(Cl)cccc2Cl)cnc1C(N)=O` [Example 38, 5-(2,6-dichlorobenzyl)-3-{[2-methoxy-4-(4-methylpiperazin-1-yl)phenyl]amino}pyridine-2-carboxamide], for which the Ki was less than 100 nM.

For the molecule `COc1cc(N2CCNCC2)ccc1Nc1cc(Cc2cc(F)ccc2Cl)cnc1C(N)=O` [Example 41, 5-(2-chloro-5-fluorobenzyl)-3-{[2-methoxy-4-(piperazin-1-yl)phenyl]amino}pyridine-2-carboxamide], the Ki is less than 100 nM.

For the molecule `CN1CCN(c2ccc(Nc3cc(Cc4cccc(F)c4)cnc3C(N)=O)cc2)CC1` [Example 14, 5-(3-fluorobenzyl)-3-{[4-(4-methylpiperazin-1-yl)phenyl]amino}pyridine-2-carboxamide], the Ki was less than 100 nM.

Consider `COc1cc(N2CCN(CC(C)(C)O)CC2)ccc1Nc1cc(Cc2c(F)cccc2Cl)cnc1C(N)=O` [Example 45, 5-(2-chloro-6-fluorobenzyl)-3-({4-[4-(2-hydroxy-2-methylpropyl)piperazin-1-yl]-2-methoxyphenyl}amino)pyridine-2-carboxamide], for which the Ki was 100 to 1000 nM.

In the case of `CN1CCN(c2ccc(Nc3cc(-c4ccccc4F)cnc3C(N)=O)cc2)CC1` [Example 50, 5-(2-fluorophenyl)-3-{[4-(4-methylpiperazin-1-yl)phenyl]amino}pyridine-2-carboxamide], the Ki is 100 to 1000 nM.

With `COc1cccc(Cc2cnc(C(N)=O)c(Nc3ccc(N4CCN(C)CC4)cc3)c2)c1` [Example 22, 5-(3-methoxybenzyl)-3-{[4-(4-methylpiperazin-1-yl)phenyl]amino}pyridine-2-carboxamide], the Ki lay within 100 to 1000 nM.

In the case of `COc1ccccc1Cc1cnc(C(N)=O)c(Nc2ccc(N3CCN(C)CC3)cc2)c1` [Example 28, 5-(2-methoxybenzyl)-3-{[4-(4-methylpiperazin-1-yl)phenyl]amino}pyridine-2-carboxamide], the Ki fell in the range of 100 to 1000 nM.

As for `CN1CCN(c2ccc(Nc3cc(CC4CCCCC4)cnc3C(N)=O)cc2)CC1` [Example 5, 5-(cyclohexylmethyl)-3-{[4-(4-methylpiperazin-1-yl)phenyl]amino}pyridine-2-carboxamide], the Ki was 100 to 1000 nM.

For `Cc1cccc(Cc2cnc(C(N)=O)c(Nc3ccc(N4CCN(C)CC4)cc3)c2)c1` [Example 26, 5-(3-methylbenzyl)-3-{[4-(4-methylpiperazin-1-yl)phenyl]amino}pyridine-2-carboxamide], the Ki fell in the range of 100 to 1000 nM.

Take `COc1cc(N2CCNCC2)ccc1Nc1cc(C(C)c2c(Cl)cccc2Cl)cnc1C(N)=O` (centres unmarked) [Example 2, 5-[1-(2,6-dichlorophenyl)ethyl]-3-{[2-methoxy-4-(piperazin-1-yl)phenyl]amino}pyridine-2-carboxamide]: the Ki was less than 100 nM.

Turning to `COc1cc(N2CCNCC2)ccc1Nc1cc(Cc2c(Cl)cccc2Cl)cnc1C(N)=O` [Example 1, 5-(2,6-dichlorobenzyl)-3-{[2-methoxy-4-(piperazin-1-yl)phenyl]amino}pyridine-2-carboxamide], the Ki was less than 100 nM.

As to `CN1CCN(c2ccc(Nc3cc(-c4ccccc4NS(C)(=O)=O)cnc3C(N)=O)cc2)CC1` [Example 55, 3-{[4-(4-methylpiperazin-1-yl)phenyl]amino}-5-{2-[(methylsulfonyl)amino]phenyl}pyridine-2-carboxamide], the Ki is 100 to 1000 nM.

`CN1CCN(c2ccc(Nc3cc(-c4cccc(C#N)c4)cnc3C(N)=O)cc2)CC1` [Example 59, 5-(3-cyanophenyl)-3-{[4-(4-methylpiperazin-1-yl)phenyl]amino}pyridine-2-carboxamide]: the Ki is more than 1000 nM.

For `CCN1CCN(c2ccc(Nc3cc(Cc4c(F)cccc4Cl)cnc3C(N)=O)c(OC)c2)CC1` [Example 47, 5-(2-chloro-6-fluorobenzyl)-3-{[4-(4-ethylpiperazin-1-yl)-2-methoxyphenyl]amino}pyridine-2-carboxamide], the Ki was less than 100 nM.

As to `CN1CCN(c2ccc(Nc3cc(-c4cccnc4)cnc3C(N)=O)cc2)CC1` [Example 60, 5-{[4-(4-methylpiperazin-1-yl)phenyl]amino}-3,3′-bipyridine-6-carboxamide], the Ki is more than 1000 nM.

In the case of `CN1CCN(c2ccc(Nc3cc(Cc4ccc(F)c(F)c4)cnc3C(N)=O)cc2)CC1` [Example 19, 5-(3,4-difluorobenzyl)-3-{[4-(4-methylpiperazin-1-yl)phenyl]amino}pyridine-2-carboxamide], the Ki is 100 to 1000 nM.

With `CN1CCN(c2ccc(Nc3cc(Cc4ccccc4)cnc3C(N)=O)cc2Cl)CC1` [Example 7, 5-benzyl-3-{[3-chloro-4-(4-methylpiperazin-1-yl)phenyl]amino}pyridine-2-carboxamide], the Ki was in the range of 100 to 1000 nM.

Turning to `CN1CCN(c2ccc(Nc3cc(Cc4ccccc4F)cnc3C(N)=O)cc2)CC1` [Example 13, 5-(2-fluorobenzyl)-3-{[4-(4-methylpiperazin-1-yl)phenyl]amino}pyridine-2-carboxamide], the Ki was less than 100 nM.

With `CN1CCN(c2ccc(Nc3cc(Cc4c(Cl)cccc4Cl)cnc3C(N)=O)cc2)CC1` [Example 31, 5-(2,6-dichlorobenzyl)-3-{[4-(4-methylpiperazin-1-yl)phenyl]amino}pyridine-2-carboxamide], the Ki was less than 100 nM.

For `CN1CCN(c2ccc(Nc3cc(-c4ccccc4C#N)cnc3C(N)=O)cc2)CC1` [Example 61, 5-(2-cyanophenyl)-3-{[4-(4-methylpiperazin-1-yl)phenyl]amino}pyridine-2-carboxamide], the Ki was more than 1000 nM.

Consider `CN1CCN(c2ccc(Nc3cc(/C=C/c4ccccc4)cnc3C(N)=O)cc2)CC1` [Example 56, 3-{[4-(4-methylpiperazin-1-yl)phenyl]amino}-5-[(E)-2-phenylvinyl]pyridine-2-carboxamide], for which the Ki is more than 1000 nM.

Regarding `Cc1ccc(Cc2cnc(C(N)=O)c(Nc3ccc(N4CCN(C)CC4)cc3)c2)cc1` [Example 29, 5-(4-methylbenzyl)-3-{[4-(4-methylpiperazin-1-yl)phenyl]amino}pyridine-2-carboxamide], the Ki was in the range of 100 to 1000 nM.
